Publication PMC7710018, “Restoration of motor learning in a mouse model of Rett syndrome following long-term treatment with a novel small-molecule activator of TrkB” (Disease Models & Mechanisms, 2020)

Key:
3T3-TrkC cells = test: NIH-3T3 cell survival (ViaLight); format: cell-based, mouse; settings: serum-free medium, 72-96 h, PTX-BD4-3 1000 nM
Procedure: (§1) Fig. 2. PTX-BD4-3 promotes cell survival preferentially through TrkB. (A-D) Neurotrophin receptor-expressing NIH-3T3 cells were incubated in culture medium (CM) alone or in medium plus either the indicated neurotrophins (BDNF, NGF, NT-3) or PTX-BD4-3 or its parent compound LM22A-4 for 72-96 h, after which survival was measured using the ViaLight assay. […] Scale bar: 10 μm. (B) Survival dose-response curves for PTX-BD4-3 and LM22A-4 in 3T3-TrkB cells. ^§P≤0.001 compared to CM alone. (C) Representative images of 3T3-TrkA, 3T3-TrkC and 3T3-p75 cells grown in the presence of CM alone, CM+neurotrophin or CM+PTX-BD4-3. Scale bar: 10 μm. NGF, NT-3 and BDNF served as positive controls for 3T3-TrkA, 3T3-TrkC and 3T3-p75 cells, respectively. (D) PTX-BD4-3 (1000 nM) had no effect on survival of 3T3-TrkA, 3T3-TrkC or 3T3-p75 cells compared to medium alone. *P≤0.05, ***P≤0.001 compared to CM alone. For each determination in B and D, n=10-32 wells derived from four to five independent experiments. Statistical significance was determined by one-way ANOVA with Dunnett's post hoc multiple comparison test. (E,F) […] protein was extracted from human cementoblast-like cell (HCEM) cultures treated with either culture medium alone, BDNF, LM22A-4 or PTX-BD4-3, immunoprecipitated with anti-TrkB antibody and then probed sequentially on western blots with anti-Shc and anti-TrkB antibody. The ratio of Shc to TrkB in treated cultures was normalized and compared to control (CM alone) using Kruskal-Wallis ANOVA followed by Dunn's multiple comparisons test (*P≤0.05, ^§P≤0.001). n=13 independent experiments, and each protein sample was run on duplicate western blots and the normalized values averaged. RLUs, relative light units.
(§2) Mouse NIH-3T3 cells expressing TrkA (NIH-3T3-TrkA) were provided by Dr William Mobley (University of California at San Diego, San Diego, CA, USA), and NIH-3T3 cells expressing TrkB (NIH-3T3-TrkB) or TrkC (NIH-3T3-TrkC) were provided by Dr David Kaplan (University of Toronto, Toronto, ON, Canada). Cells were propagated in Dulbecco's modified Eagle medium (DMEM) supplemented with 10% fetal bovine serum (FBS; Invitrogen) and 200-400 µg/ml Geneticin. Cells were seeded into 24-well plates (30,000 cells/well) and cultured in medium consisting of 50% PBS and 50% DMEM without supplements. Following exposure to BDNF (20 ng/ml, 0.7 nM) or 10-1000 nM LM22A-4 or PTX-BD4-3 for 72-96 h, cells were suspended in 50 µl lysis buffer, transferred to white, opaque 96-well culture plates and survival was measured using the ViaLight Assay (Lonza Group, Rockland, ME, USA).

3T3-p75 cells = test: NIH-3T3 cell survival (ViaLight); format: cell-based, mouse; settings: serum-free medium, 72-96 h, PTX-BD4-3 1000 nM
Procedure: as §1, §2

3T3-TrkA cells = test: NIH-3T3 cell survival (ViaLight); format: cell-based, mouse; settings: serum-free medium, 72-96 h, PTX-BD4-3 1000 nM
Procedure: as §1, §2

[1] = Body weight / tolerability on chronic intermittent dosing; format: in vivo; settings: 8 weeks
Source text: In light of evidence that deficits in BDNF expression and TrkB signaling contribute to neurological dysfunction in mouse models of RTT ([Katz, 2014]), we next examined whether or not chronic treatment of Mecp2 mutant mice with PTX-BD4-3 would ameliorate disease phenotypes. For these studies, we used heterozygous (Het) female Mecp2 mutants, which, unlike male null mice, model the somatic mosaicism for normal and mutant MeCP2 that characterizes the human disease ([Katz et al., 2012]). Animals were treated once every 3 days (5 mg/kg, i.p.), beginning at 16 weeks of age, and neurological phenotypes were assessed at various time points up to 8 weeks of dosing. All tests were performed 24 h after the last treatment. Phenotypic assessments included whole-body plethysmography to quantify apneic breathing, a core feature of respiratory dysfunction in RTT, as well as a motor test battery.
Figure S2. Repeated dosing with PTX-BD4-3 (5 mg/kg, q72 hrs) had no
effect on body weight in either Wt or Het mice.
Initial Week 2 Week 4 Week 6 Week 8
Body weight (g) Wt Saline Wt BD4‐3
Disease Models & Mechanisms: doi:10.1242/dmm.044685: Supplementary information
Disease Models & Mechanisms • Supplementary information […]

In the case of COCCN(C)C(=O)c1cc(C(=O)N(C)CCOC)cc(C(=O)N(C)CCOC)c1 [PTX-BD4-3, benzene-1,3,5-tricarboxylic acid tris-[(2-methoxy-ethyl)-methyl-amide]], the “survival of 3T3-TrkC cells” value (3T3-TrkC cells) is reported as “no effect”, the “survival of 3T3-p75 cells” value (3T3-p75 cells) is reported as “no effect” and the “survival of 3T3-TrkA cells” value (3T3-TrkA cells) is reported as “no effect”. The “tolerability of chronic intermittent dosing” value ([1]; 5 mg/kg i.p. q72 h) was “well tolerated” and the body weight ([1]; Het mice, 5 mg/kg q72 h, vs saline-treated Het littermates) was “unchanged”.
